ChEMBL document CHEMBL5726333, “C2-carbocyclic iminothiazine dioxides as BACE inhibitors, compositions, and their use” (2017)

Assays:
[1] = target: T1, Beta-secretase 2 (Homo sapiens, UniProt Q9Y5Z0); assay: BACE-2 Assay: The compounds of the invention were determined to be potent inhibitors of BACE-2 using the following assay. Inhibitor IC50s at purified human autoBACE-2 are determined in a time-resolved endpoint proteolysis assay that measures hydrolysis of the QSY7-[…]-Eu-amide FRET peptide substrate (BACE-HTRF assay). BACE-mediated hydrolysis of this peptide results in an increase in relative fluorescence (RFU) at 620 nm after excitation with 320 nm light Inhibitor compounds, prepared at 3× the desired final concentration in 1×BACE assay buffer (20 mM sodium acetate pH 5.0, 10% glycerol, 0.1% Brij-35) supplemented with 7.5% DMSO are pre-incubated with an equal volume of autoBACE-2 enzyme diluted in 1×BACE assay buffer (final enzyme concentration 1 nM) in black 384-well NUNC plates for 30 minutes at 30° C. […] DMSO is present at 5% final concentration in the assay. Following laser excitation of sample wells at 320 nm, the fluorescence signal at 620 nm is collected for 400 ms following a 50 μs delay on a RUBYstar HTRF plate reader (BMG Labtechnologies). Raw RFU data is normalized to maximum (1.0 nM BACE/DMSO) and minimum (no enzyme/DMSO) RFU values.
T1 sequence (Q9Y5Z0 whole entry): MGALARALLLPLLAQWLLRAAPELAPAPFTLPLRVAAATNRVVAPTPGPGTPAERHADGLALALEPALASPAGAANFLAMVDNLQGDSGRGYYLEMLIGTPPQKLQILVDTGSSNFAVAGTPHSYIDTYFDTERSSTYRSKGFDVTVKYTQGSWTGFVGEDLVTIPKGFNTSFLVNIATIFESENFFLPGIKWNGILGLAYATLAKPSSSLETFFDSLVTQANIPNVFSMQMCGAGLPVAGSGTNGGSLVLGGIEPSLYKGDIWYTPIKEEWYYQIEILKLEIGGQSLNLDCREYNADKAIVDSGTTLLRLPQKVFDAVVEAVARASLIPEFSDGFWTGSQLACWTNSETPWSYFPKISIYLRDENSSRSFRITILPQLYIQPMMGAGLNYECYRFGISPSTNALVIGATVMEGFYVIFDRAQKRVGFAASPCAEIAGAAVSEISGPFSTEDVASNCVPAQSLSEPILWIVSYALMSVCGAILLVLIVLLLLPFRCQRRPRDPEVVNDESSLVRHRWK

[2] = target: Beta-secretase 1 (Homo sapiens, UniProt P56817); assay: HTRF FRET Assay: The compounds of the invention were determined to be potent inhibitors of BACE-1 using the following assay.The following reagents were used in this assay. Na+-Acetate pH 5.0; 1% Brij-35; Glycerol; Dimethyl Sulfoxide (DMSO); Recombinant human soluble BACE-1 catalytic domain (>95% pure); APP Swedish mutant peptide substrate (QSY7-APPswe-Eu): QSY7-[…]-Europium-amide.A homogeneous time-resolved FRET assay can be used to determine IC50 values for inhibitors of the soluble human BACE-1 catalytic domain. This assay monitors the increase of 620 nm fluorescence that resulted from BACE-1 cleavage of an APPswedish APPswe mutant peptide FRET substrate (QSY7-[…]-Europium-amide). This substrate contains an N-terminal QSY7 moiety that serves as a quencher of the C-terminal Europium fluorophore (620 nm Em). In the absence of enzyme activity, 620 nm fluorescence is low in the assay and increased linearly over 3 hours in the presence of uninhibited BACE-1 enzyme. Inhibition of BACE-1 cleavage of the QSY7-APPswe-Eu substrate by inhibitors is manifested as a suppression of 620 nm fluorescence.
Sequence of Beta-secretase 1 (P56817 whole entry, the tested form may be a part): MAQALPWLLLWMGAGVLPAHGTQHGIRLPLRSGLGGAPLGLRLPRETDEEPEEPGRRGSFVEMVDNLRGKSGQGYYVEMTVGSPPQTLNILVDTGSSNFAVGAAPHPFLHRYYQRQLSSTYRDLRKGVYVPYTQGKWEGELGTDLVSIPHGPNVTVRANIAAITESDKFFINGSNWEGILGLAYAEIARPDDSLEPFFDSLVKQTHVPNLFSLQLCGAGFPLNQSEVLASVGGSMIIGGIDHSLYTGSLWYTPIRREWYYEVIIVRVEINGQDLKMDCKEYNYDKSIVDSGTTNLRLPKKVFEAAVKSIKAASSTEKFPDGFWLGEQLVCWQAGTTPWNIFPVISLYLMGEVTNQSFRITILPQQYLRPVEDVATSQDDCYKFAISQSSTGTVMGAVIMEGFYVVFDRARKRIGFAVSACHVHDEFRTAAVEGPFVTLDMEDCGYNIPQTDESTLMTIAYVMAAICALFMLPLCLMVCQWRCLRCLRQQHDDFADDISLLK

[3] = target: Cathepsin D (Homo sapiens, UniProt P07339); assay: Cathepsin-D Assay: The following reagents were used in this assay: Na+-Acetate pH 5.0; 1% Brij-35; Dimethyl Sulfoxide (DMSO); Purified human Cathepsin-D (>95% pure); Aspartyl protease peptide substrate AC-Cys(Eu_Chelate)-Gly-Lys-Pro_ile_leu_phe-Phe-Arg-Leu-Lys(QSY7)-ASP-ASP-NH2.As noted above, certain compounds of the invention exhibit good selectivity of BACE-1 over Cathepsin-D. A homogeneous …
Sequence of Cathepsin D (P07339 65-162 limits assumed): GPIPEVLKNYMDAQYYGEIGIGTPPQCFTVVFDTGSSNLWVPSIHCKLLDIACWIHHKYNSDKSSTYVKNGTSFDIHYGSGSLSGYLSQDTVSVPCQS
Sequence of Cathepsin D (P07339 169-412 limits assumed): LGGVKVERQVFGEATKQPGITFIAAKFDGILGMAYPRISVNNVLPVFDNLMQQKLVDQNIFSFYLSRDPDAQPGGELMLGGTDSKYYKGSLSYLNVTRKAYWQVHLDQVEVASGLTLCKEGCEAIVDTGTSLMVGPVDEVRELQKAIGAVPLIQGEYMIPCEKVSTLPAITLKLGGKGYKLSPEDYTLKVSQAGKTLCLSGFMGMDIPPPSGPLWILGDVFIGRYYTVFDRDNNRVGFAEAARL
Description: This substrate contains an C-terminal QSY7 moiety that serves as a quencher of the N-terminal Europium fluorophore (620 nm Em). In the absence of enzyme activity, 620 nm fluorescence is low in the assay and increased linearly over 1 hour in the presence of uninhibited Cathepsin-D enzyme. Inhibition of Cathespin D cleavage of the Eu-Aspartyl Protease-QSY7 substrate by inhibitors is manifested as a suppression of 620 nm fluorescence.

Row | Compound | Ki [1] [nM] | Ki [2] [nM] | Ki [3] [nM]
1 | C[C@@]1(c2cc(Nc3ccnc4cc(F)cnc34)ncc2F)CS(=O)(=O)[C@@](C)(C2CC2)C(N)=N1 | 1.7 | 8.5 | 4900
2 | CC#CCOc1cnc2c(Nc3cnc(F)c([C@]4(C)CS(=O)(=O)[C@@](C)(C5CC5)C(N)=N4)c3)nccc2c1 | 120 | 2.8 | > 9400
3 | COc1cnc2c(Nc3ccc(F)c([C@]4(C)CS(=O)(=O)[C@@](C)(C5CC5)C(N)=N4)c3)ccnc2n1 | 53 | 40 | > 9400
4 | C[C@@]1(c2cc(Nc3ccnc4cccnc34)ncc2F)CS(=O)(=O)[C@@](C)(C2CC2)C(N)=N1 | 3.6 | 59 | > 9400
5 | CC#CCOc1cnc2c(Nc3cnc(F)c([C@]4(C)CS(=O)(=O)[C@@](C)(C5CC5)C(N)=N4)c3)nccc2n1 | 24 | 1.8 | > 9400
6 | C[C@@]1(c2cc(Nc3nccc4cc(C#N)cnc34)ccc2F)CS(=O)(=O)[C@@](CF)(C2CC2)C(N)=N1 | 0.6 | 1.3 | 563

Further lines, results first:

Row | Ki [1] [nM] | Ki [2] [nM] | Ki [3] [nM] | Compound
7 | 2.2 | 5.2 | > 9400 | COc1cnc2c(Nc3cc([C@]4(C)CS(=O)(=O)[C@@](C)(C5CC5)C(N)=N4)c(F)cn3)ccnc2n1
8 | 1 | 12 | > 9400 | C[C@@]1(c2cc(Nc3nccc4cc(F)cnc34)ncc2F)CS(=O)(=O)[C@@](C)(C2CC2)C(N)=N1
9 | 20 | 27 | > 9400 | COc1cnc2c(Nc3ccc(F)c([C@]4(C)CS(=O)(=O)[C@@](C)(C5CC5)C(N)=N4)c3)ccnc2c1
10 | 19 | 13 | > 9400 | C[C@@]1(c2cc(Nc3ncnc4cc(C#N)cnc34)ncc2F)CS(=O)(=O)[C@@](C)(C2CC2)C(N)=N1
11 | 1.2 | 1.5 | > 9400 | CC#CCOc1cnc2c(Nc3cc([C@]4(C)CS(=O)(=O)[C@@](C)(C5CC5)C(N)=N4)c(F)cn3)nccc2n1
